Assay results: patent publication US5731155A, “Compositions for inhibition of intracellular transcription factors and methods therefor” (Washington University, priority 1996, dated 1998)
Where a SMILES comes first, the peptide text is derived from it. [ ]: non-standard residue; d: D form. pY = N[C@@H](Cc1ccc(OP(=O)(O)O)cc1)C(=O)O

Assays:
[1] = biological target: T1, p91 (Homo sapiens, UniProt P42224); experiment: Electrophoretic mobility shift assay (EMSA) of IFNγ-induced p91 activation in Colo-205 homogenates; format: biochemical; settings: phosphopeptide 3 μM
T1 construct: endogenous in cells; host or cells: Colo-205 (human adenocarcinoma) cell homogenates
T1 sequence (P42224 1-750): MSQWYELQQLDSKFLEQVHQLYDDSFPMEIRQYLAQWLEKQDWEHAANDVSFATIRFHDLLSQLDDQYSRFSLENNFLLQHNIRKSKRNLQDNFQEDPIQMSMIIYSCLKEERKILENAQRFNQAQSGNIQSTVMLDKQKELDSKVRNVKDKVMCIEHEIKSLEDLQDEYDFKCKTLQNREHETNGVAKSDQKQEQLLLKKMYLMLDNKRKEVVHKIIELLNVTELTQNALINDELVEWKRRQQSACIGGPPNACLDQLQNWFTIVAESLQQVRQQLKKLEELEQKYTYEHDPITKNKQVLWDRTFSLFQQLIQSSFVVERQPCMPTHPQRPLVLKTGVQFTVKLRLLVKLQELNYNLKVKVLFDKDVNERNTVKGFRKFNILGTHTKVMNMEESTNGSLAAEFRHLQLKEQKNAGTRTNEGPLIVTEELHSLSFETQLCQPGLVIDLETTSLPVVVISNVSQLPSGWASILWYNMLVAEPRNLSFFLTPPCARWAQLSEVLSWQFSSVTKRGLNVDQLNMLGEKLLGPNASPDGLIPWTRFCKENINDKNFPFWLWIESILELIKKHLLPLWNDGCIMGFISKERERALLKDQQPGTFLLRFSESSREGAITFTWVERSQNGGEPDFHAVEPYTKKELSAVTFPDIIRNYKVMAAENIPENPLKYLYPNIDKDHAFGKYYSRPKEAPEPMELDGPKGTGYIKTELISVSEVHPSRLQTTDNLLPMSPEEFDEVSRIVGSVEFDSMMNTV
Text: For this example, the finding that the latent IFNγ inducible transcription factor, p91, can be activated by IFNγ in a cell free system (Igarashi et al., Mol Cell Biol 13:1634-1640, 1993 which is incorporated by reference) was utilized to determine the biologic significance of the IFNγ induced tyrosine phosphorylation of the Y440 residue in the IFNγ receptor molecule. Colo-205 homogenates were stimulated with 1900 IRU of human IFNγ and p91 activation monitored using an electrophoretic mobility gel shift assay (EMSA) that employed a ^32 P-labeled 18 bp probe derived from the FcγR I gene promoter (Pearse et al., Proc Natl Acad Sci 90:4314-4318, 1993 which is incorporated by reference). The EMSAs were carried out essentially as described (Igarashi et al., supra). […] The reactions were then electrophoresed through a 6% polyacrylamide gel in 0.25×TBE for 3 hours at 150 V. Gels were dried and subsequently analyzed by autoradiography. […] Specificity of interactions were determined by the addition of 350 ng of the unlabeled GRR probe or 560 ng of the unlabeled 41 base pair double stranded oligonucleotide containing the ISRE of ISG15 (5'-GATCCATGCCTCGGGA-[…]-3' SEQ ID NO: 14) (David and Larner, Science 257:813-815, 1992 which is incorporated by reference). […]

[2] = tested on: IFNγ receptor α chain; experiment: IFNγ dependent tyrosine phosphorylation of the IFNγ receptor α chain in Colo-205 cells (4G10 western blot); format: cell-based, human; settings: pretreatment of Colo-205 cells with 1 mM
Text: For these experiments, Colo-205, a human adenocarcinoma cell line obtained from the ATCC, was used because it was known to express a high number of IFNγ receptors (10,000 receptors/cell) and has been well characterized with regard to both biologic responsiveness to IFNγ and IFNγ receptor […] phosphorylation (Hershey and Schreiber, 1989; Hershey et al., 1990 both of which are incorporated by reference). Colo-205 cells (5-10×10^7) were resuspended in one ml of PBS-10% FCS and were then incubated at 37° C., either in the presence or absence of rHuIFNγ (10,000 IRU). Purified recombinant human IFNγ was provided by Dr. Susan Kramer of Genentech, Inc. (South San Francisco, Calif.). […] Purified rHuIFNγ was radioiodinated, using Bolton Hunter reagent (ICN Chemicals, Radioisotope Division, Irvine, Calif.) to specific activities of 6.5-17.8 μCi/μg as described in Celada et al. (J Clin Invest 76:2196-2205, 1985 which is incorporated by reference). The reaction was stopped by adding 4 mls of ice-cold PBS. Cells were pelleted, washed once in ice-cold PBS, and then lysed in one ml of lysis buffer (25 mM Tris-HCl (pH 8.0), 1% NP-40, 150 mM NaCl, 1 mM sodium orthovanadate, 10 mM NaF, 1 mM PMSF, 5mM iodoacetamide, […] leupeptin and aprotinin). Solubilized cells were centrifuged at 15,000×g to remove cell nuclei and the supernatants were then incubated with 10 μg of GIR-94 for 30 minutes at 4° C. Protein G sepharose was added to the reaction mixture and the incubation continued for an additional 30 minutes. […]
To determine the amount of receptor precipitated at each time point, aliquots from each immunoprecipitate were subjected to western blot analysis using a monoclonal antibody (GIR-94, a murine antibody IgG2b) that is specific for the human IFNγ receptor extracellular domain. In the absence of added IFNγ, no tyrosine phosphorylated receptor was detected (FIG. 1, lane 1). […]

[3] = tested on: Colo-205 cells; experiment: IFNγ dependent MHC class II induction on Colo-205 cells; format: cell-based, human; settings: pretreatment of Colo-205 cells with 1 mM
Procedure: To further characterize the tyrosine phosphorylation of the […] receptor and to partially validate its biologic significance, concomitant dose-response phosphorylation and MHC class II induction analyses were performed. Colo-205 cells (1×10^8 cells/ml) were stimulated for 5 minutes with the indicated concentrations of rHuIFNγ as shown in FIG. 2. Cells were lysed and the IFNγ receptor immunoprecipitated, subjected to SDS-PAGE and electrophoretically transferred to nitrocellulose membranes as described above. Membranes were blotted with the mAb 4G10 (anti-phosphotyrosine) as described. Colo-205 cells (1×10^8 cells/ml) were also stimulated for 5 minutes with the indicated concentrations of rHuIFNγ, washed, and incubated an additional 48 hours in the absence of rHuIFNγ. MHC class II expression was quantitated by flow cytometric analysis.

[4] = Specific antiviral activity of rHuIFNγ; settings: purified recombinant human IFNγ

With `C[C@@H](O)[C@H](N)C(=O)N[C@@H](CO)C(=O)N[C@@H](Cc1ccccc1)C(=O)NCC(=O)N[C@@H](Cc1ccc(OP(=O)(O)O)cc1)C(=O)N[C@@H](CC(=O)O)C(=O)N[C@@H](CCCCN)C(=O)N1CCC[C@H]1C(=O)N[C@@H](Cc1c[nH]cn1)C(=O)O` [SEQ ID NO:3, Thr-Ser-Phe-Gly-Xaa-Asp-Lys-Pro-His] (H-TSFG[pY]DKPH-OH) the “inhibition of formation of activated p91-labeled probe complex” value [1] was 61%.

With `CO[C@H]1[C@@H](OC)C[C@H](C)[C@@H](OC)C2=CC(=O)C=C(NC(=O)/C(C)=C/C=C\[C@H](OC)[C@@H](OC(N)=O)/C(C)=C/[C@@H]1C)C2=O` [herbimycin A, reference compound] the “IFNγ dependent tyrosine phosphorylation of the IFNγ receptor α chain” value [2] was “inhibited” and the “IFNγ dependent MHC class II induction” value [3] was “blocked”.

B1: rHuIFNγ: Purified recombinant human IFNγ provided by Genentech, Inc. (protein, UniProt P01579 24-161, looked up)
Interferon gamma: QDPYVKEAENLKKYFNAGHSDVADNGTLFLGILKNWKEESDRKIMQSQIVSFYFKLFKNFKDDQSIQKSVETIKEDMNVKFFNSNKKKRDDFEKLTNYSVTDLNVQRKAIHELIQVMAELSPAAKTGKRKRSQMLFRG
With B1 the specific antiviral activities [4] was 3.8×10^7 IRU/mg.
